# Data published in US9744175B2, “Compositions of combinations of non-covalent DNA binding agents and anti-cancer and/or anti-inflammatory agents and their use in disease treatment” (INDUS PHARMACEUTICALS, INC., priority 2012, dated 2017).
# “And” between values parts separate entries of the source, which are not always exact repeats. Equal values may be shown once.
# How the values were obtained:
# Jurkat = assay: Growth inhibition in tumor cell lines (Table 2); format: cell-based, human; settings: leukemia, PTEN deficiency
# U2OS = assay: Growth inhibition in tumor cell lines (Table 2); format: cell-based, human; settings: Osteosacroma, WT, lack of EGFR
# HCT116 (mlh−) = assay: siRNA inhibition of p53 and REV functions, alamar blue growth inhibition; format: cell-based, human; settings: for IC50: no siRNA knock out, read-out: IC50, Control; for Fold improvement in IC50, p53: p53 siRNA vs control; for Fold improvement in IC50, rev: rev siRNA vs control
# Experimental: (§1) siRNA specific for different genes is purchased from Dharmacon (Thermo. Fisher Scientific Dharmacon Products, Lafayette, Colo. 80026) and the protocol recommended by the supplier is utilized. Confluent cells are trypsinized and 5000 cells are seeded in a well in the presence or absence of siRNA in 100 μL medium. The cells are incubated with siRNA for two days. A non-covalent DNA binding agent of the invention is added in a 10 μL volume and incubated for another 48 hours. After treatment with the agent, the medium is replaced with 1% alamar blue containing medium to measure fluorescence after two hours.
# as §1, with “from Dharmacon (Thermo Fisher Scientific” for “from Dharmacon (Thermo. Fisher Scientific”, “two hours. […] The results are presented in FIGS. 14-18 (SEQ ID NO:3-12, respectively) and Table 7.” for “two hours.”
# [1] = Intravenous and oral pharmacokinetics in male Sprague-Dawley rats; format: in vivo, rat; settings: for AUC0-inf / AUC0-t / Cmax / Tmax: rat blood; for AUC0-inf / AUC0-t / Cmax: mean ± SD; for Tmax: median; for T1/2: harmonic mean; for clearance as share of normal liver blood flow in rat (55 mL/min/kg) / mean volume of distribution as multiple of total body water: intravenous administration; for F (oral absolute bioavailability): oral 20 mg/kg vs IV 3 mg/kg, dose-normalised AUC0-inf
# Experimental: Intravenous and oral pharmacokinetic studies are conducted on the novel non-covalent DNA binding agents, NSC 718813, NSC 723734 and NSC 726260, in male Sprague-Dawley rats. The studies are conducted in a parallel design with two groups of four male rats each for intravenous and oral administration of the test agents. The protocols for the studies are approved by the appropriate institutional animal care and use committee.
# Groups of rats designated to receive oral doses of the novel non-covalent DNA binding agents of the invention molecules receive an oral dose of 20 mg/kg in a formulation vehicle comprised of N,N-dimethylacetamide (DMA), polyethylene glycol 400 (PEG400), ethanol, Cremophor EL and water (10:10:10:5:65 v/v). The dose volume for the oral doses of the test compounds is 8 mL/kg. Groups of rats are randomized to receive intravenous doses of agents. These rats receive a single intravenous bolus dose of 3 mg/kg of the test compound in a vehicle comprised of DMA:PEG400:ethanol:Cremophor EL:0.9% sodium chloride (saline) (10:10:10:5:65 v/v). The dose volume for intravenous doses of test agents is 1 mL/kg.
# Predose blood samples are obtained from all rats from both, oral and intravenous dosing groups. For the intravenously dosed rats, blood samples (100 uL each) are obtained at 0.083, 0.25. 0.5, 1.0, 2.0, 4.0, 8.0, 12.0 and 24.0 hours post-dose. For the oral dose groups, the sampling times are identical to the intravenous dose group, except that the 0.083 hour sample is not collected. Following the collection of the blood samples, an equal volume of water is added to the blood sample to hemolyze the blood sample and the samples are stored frozen at −70° C. until bioanalysis.
# Plasma samples are analyzed for the concentration of the test non-covalent DNA binding agents of the invention using an HPLC method with mass spectrometric (MS/MS) detection, following a liquid:liquid extraction of the plasma samples using a dichloromethane:ethyl acetate (20:80) mixture. To a 100 μL aliquot of sample, 50 μL of an internal standard (NSC 723732) is added. After mixing the internal standard wen, 2.5 mL of the extracting solvent (dichloromethane:ethyl acetate 20:80 v/v) is added. The mixture is vortexed for one minute and the samples are centrifuged at 3000 rpm for 3 minutes. Approximately 2 mL of the supernatant is taken from the centrifuged tubes and the sample is dried under a nitrogen stream at 50° C. The residue is reconstituted with 100 μL of the mobile phase and 20 μL is injected into the HPLC system for analysis. The mobile phase is comprised of milli-Q water:acetonitrile:formic acid (20:80:0.05) adjusted to pH 7.5 with ammonia.
# The analysis of the test agent concentration is conducted by an HPLC method using a Shimadzu Prominence HPLC system and the eluent is analyzed using an API 4000 LC-MS/MS system (Applied Biosystems). The samples are analyzed on a HyPurity Advance, 50×4.6 mm, 5 u, Thermoelectron column. An injection volume of 20 μL is used for the analytical sample and the flow rate of the mobile phase is 0.6 mL/minute. Mass spectrometric analysis is conducted on the eluent using the API 4000 LC-MS/MS system and the mass parameters are analyzed for MRM transitions using NSC 723732 as the internal standard, in a positive ionization mode at a temperature of 400 C.
# yeast rad1 mutation = assay: Alamar Blue cell survival assay in yeast cells; format: cell-based
# Experimental: (§2) The cells are diluted 100-fold in yeast complete medium. 100 μL of diluted cells are seeded in 96 well plates with or without a non-covalent DNA binding compound and incubated for 24 hours at 30° C. The following day, an equal volume of yeast complete medium containing 1% alamar blue is added and incubated at 30° C. for two hours. Fluorescence intensity is measured in a fluorescent reader to calculate the inhibition effect of non-covalent DNA binding agents in mutant and wild type yeast cells.
# (§3) Yeast cells that carry mutations in different genes involved in homologous recombination (rad 50, rad51, rad52, and rad57) and nucleotide excision/double strand repair (rad1) are grown to stationary culture overnight.
# yeast rad52 mutation = assay: Alamar Blue cell survival assay in yeast cells; format: cell-based
# Experimental: as §2, §3
# Wild type yeast = assay: Alamar Blue cell survival assay in yeast cells; format: cell-based
# Experimental: as §2, §3
# yeast rad50 mutation = assay: Alamar Blue cell survival assay in yeast cells; format: cell-based
# Experimental: as §2, §3
# yeast rad51 mutation = assay: Alamar Blue cell survival assay in yeast cells; format: cell-based
# Experimental: as §2, §3
# [2] = tested on: SW620 colon tumor xenograft; assay: SW620 colon tumor xenograft model; format: in vivo, mice
# [3] = IV-bolus 3 mg/kg, rat, listed as NSC723734, 3 mg/kg
structure (smiles),measurement,setting,value
COc1cc2c(cc1OCCCC(=O)Nc1ccc3ccc4cccc5ccc1c3c45)N=C[C@@H]1CCCN1C2=O [NSC 726260],IC50,Jurkat,0.114 ± 0.0267 µM
same,IC50,U2OS,0.397 µM
same,IC50,HCT116 (mlh−),0.75 µM
same,"Fold improvement in IC50, p53",HCT116 (mlh−),3.8 fold
same,"Fold improvement in IC50, rev",HCT116 (mlh−),5.0 fold
same,Vdss,"[1]; IV-bolus 3 mg/kg, rat",1.9 L/kg
same,AUC0-inf,[1]; IV-bolus 3 mg/kg,5112 ng·h/mL
same,AUC0-t,[1]; IV-bolus 3 mg/kg,5058 ± 874 ng·h/mL
same,Cmax,[1]; IV-bolus 3 mg/kg,5587 ng/mL
same,Tmax,[1]; IV-bolus 3 mg/kg,0.083 h
same,T1/2,"[1]; IV-bolus 3 mg/kg, rat",4.8 h
same,CLblood,"[1]; IV-bolus 3 mg/kg, rat, 3 mg/kg",10.4 mL/min/kg and 10.4 ± 2.0 mL/min/kg
same,clearance as share of normal liver blood flow in rat (55 mL/min/kg),[1]; rat,about 20%
same,mean volume of distribution as multiple of total body water,[1]; rat,about 3 times
same,AUC0-inf,[1]; oral solution 20 mg/kg,2536 ng·h/mL
same,AUC0-t,[1]; oral solution 20 mg/kg,2474 ± 844 ng·h/mL
same,Cmax,[1]; oral solution 20 mg/kg,438 ng/mL
same,Tmax,[1]; oral solution 20 mg/kg,4.0 h
same,T1/2,"[1]; oral solution 20 mg/kg, rat",4.6 ± 1.7 h
same,IC50,yeast rad1 mutation,15 µM
same,IC50,yeast rad52 mutation,15 µM
same,IC50,Wild type yeast,45 µM
same,IC50,yeast rad50 mutation,20 µM
same,IC50,yeast rad51 mutation,4.5 µM
same,pharmacological activity in SW620 colon tumor xenograft model,[2]; combined IV and IP administration,limited pharmacological activity
COc1cc2c(cc1OCCCCN1CCN(CCCCOc3cc4c(cc3OC)C(=O)N3CCC[C@H]3C=N4)CC1)N=C[C@@H]1CCCN1C2=O [NSC 723734],IC50,Jurkat,0.045 ± 0.004 µM
same,IC50,U2OS,0.178 µM
same,IC50,HCT116 (mlh−),0.3 µM
same,"Fold improvement in IC50, p53",HCT116 (mlh−),2.2 fold
same,"Fold improvement in IC50, rev",HCT116 (mlh−),2.2 fold
same,AUC0-inf,[1]; IV-bolus 3 mg/kg,4405 ng·h/mL
same,AUC0-t,[1]; IV-bolus 3 mg/kg,4246 ± 311 ng·h/mL
same,Cmax,[1]; IV-bolus 3 mg/kg,4053 ng/mL
same,Tmax,[1]; IV-bolus 3 mg/kg,0.083 h
same,T1/2,"[1]; IV-bolus 3 mg/kg, rat",6.3 h
same,CLblood,"[1]; IV-bolus 3 mg/kg, rat, 3 mg/kg",11.4 ± 0.5 mL/min/kg
same,Vdss,"[1]; IV-bolus 3 mg/kg, rat, 3 mg/kg",3.2 ± 0.3 L/kg
same,CLblood,[1]; [3],11 mL/min/kg
same,Vdss,[1]; [3],3 L/kg
same,clearance as share of normal liver blood flow in rat (55 mL/min/kg),[1]; rat,about 20%
same,mean volume of distribution as multiple of total body water,[1]; rat,about 4 times
same,F (oral absolute bioavailability),[1]; rat,0.7%
same,F (oral absolute bioavailability),"[1]; rat, listed as NSC723734",approximately 1%
same,AUC0-inf,[1]; oral solution 20 mg/kg,216 ng·h/mL
same,AUC0-t,[1]; oral solution 20 mg/kg,196 ± 93 ng·h/mL
same,Cmax,[1]; oral solution 20 mg/kg,90.5 ± 56 ng/mL
same,Cmax,"[1]; oral solution 20 mg/kg, listed as NSC723734",91 ng/mL
same,Tmax,[1]; oral solution 20 mg/kg,0.25 h
same,T1/2,"[1]; oral solution 20 mg/kg, rat",2.3 ± 0.7 h
same,IC50,yeast rad1 mutation,15 µM
same,IC50,yeast rad52 mutation,50 µM
same,IC50,Wild type yeast,> 250 µM
same,IC50,yeast rad50 mutation,17 µM
same,IC50,yeast rad51 mutation,28 µM
same,dose-reduction index (DRI) of combination with cisplatin,[2]; SW620 colon tumor xenograft mouse model,significant dose-reduction index (DRI)
same,quantitative analysis of combination with cisplatin,[2]; combination doses achieving >50% efficacy,synergistic with cisplatin
same,synergy with cisplatin in SW620 colon tumor xenograft mouse model,[2]; intermittent IP administration of the two drugs,excellent synergy with cisplatin
same,synergy with cisplatin at lower (minimally active) cisplatin dose,"[2]; intermittent IP administration, SW620 xenograft in mice",synergistic with cisplatin and restores antitumor activity of cisplatin
same,activity in SW620 colon tumor xenograft model,"[2]; intraperitoneal, once daily administration for 7 days",superior activity to NSC718813
same,reduction in SW620 colon tumor xenograft,[2]; intravenous and intraperitoneally administered,dose-dependent reduction
COc1cc2c(cc1OCCCCCOc1cc3c(cc1OC)C(=O)N1CCC[C@H]1C(=O)N3)N=C[C@@H]1CCCN1C2=O [NSC 718813],IC50,Jurkat,0.017 ± 0.0002 µM
same,IC50,U2OS,0.202 µM
same,"Fold improvement in IC50, p53",HCT116 (mlh−),12.5 fold
same,"Fold improvement in IC50, rev",HCT116 (mlh−),7.1 fold
same,Vdss,"[1]; IV-bolus 3 mg/kg, rat",1.5 ± 0.4 L/kg
same,AUC0-inf,[1]; IV-bolus 3 mg/kg,2424 ± 309 ng·h/mL
same,AUC0-t,[1]; IV-bolus 3 mg/kg,2376 ± 304 ng·h/mL
same,Cmax,[1]; IV-bolus 3 mg/kg,5723 ± 1005 ng/mL
same,Tmax,[1]; IV-bolus 3 mg/kg,0.08 h
same,T1/2,"[1]; IV-bolus 3 mg/kg, rat",2.2 ± 0.4 h
same,CLblood,"[1]; IV-bolus 3 mg/kg, rat, 3 mg/kg",approximately 20 mL/min/kg
same,CLblood,"[1]; IV-bolus 3 mg/kg, rat, listed as NSC 718813/1, 3 mg/kg",20.0 ± 2.9 mL/min/kg
same,time with rat blood concentrations well above in vitro GI50 and/or TGI,[1]; intravenous 3 mg/kg,at least 4 hours
same,F (oral absolute bioavailability),[1]; rat,2%
same,time with measurable blood levels post-dose,[1]; oral dose 20 mg/kg,up to 8 hours
same,AUC0-inf,[1]; oral solution 20 mg/kg,345 ± 142 ng·h/mL
same,AUC0-t,[1]; oral solution 20 mg/kg,303 ± 129 ng·h/mL
same,Cmax,[1]; oral solution 20 mg/kg,112 ± 32 ng/mL
same,Tmax,[1]; oral solution 20 mg/kg,0.5 h
same,T1/2,"[1]; oral solution 20 mg/kg, rat",1.8 ± 0.6 h
same,metabolic stability compared with naturally occurring antitumor antibiotic analogs,"[1]; rat, inferred from systemic clearance",better metabolic stability
same,IC50,yeast rad1 mutation,11 µM
same,IC50,yeast rad52 mutation,90 µM
same,IC50,Wild type yeast,> 250 µM
same,IC50,yeast rad50 mutation,90 µM
same,IC50,yeast rad51 mutation,7 µM
same,tumor burden in SW620 colon tumor xenograft model,[2]; Q1 Dx5 IV followed by Q4Dx3 IP administration,reduces tumor burden
